Peptide text beside a SMILES is read from it. * marks the point of attachment. Dansyl = CN(C)c1cccc2c(S(=O)(=O)*)cccc12
Test system: P100 membrane fractions derived from Caco-2 cells
Assay: Dansylated peptide ELISA on P100: PAX2 and HAX42 peptides relative binding
Experimental: The peptides and proteins were analyzed by a dansylated peptide ELISA method in which 96 well plates were coated overnight at 4° C. with 100 μl/well coating protein (normally 100 μg/ml P100 membrane fraction) in 0.05M carbonate buffer pH9.6. Nonspecific binding was blocked using 200 μl/well, 2% Marvel/PBS for 2 hours at 37° C. prior to incubation with dansylated peptides. The plates were washed three times with PBS/0.05% Tween 20 and after each subsequent incubation step. […] A buffer blank control was included to ensure that background binding to plastic was not due to the antibodies used in the assay system. […] The plates were then incubated with an anti-mouse λ-HRP conjugated antibody (Southern Biotech 1060-05) at a 1:10,000 dilution in blocking solution, 100 μl/well for 1 hour at room temperature. Plates were developed using 75 μl/well Bionostics TMB substrate and incubated for approximately 10 minutes. The developing reaction was stopped using Bionostics Red Stop solution (25 μl/well), and the optical density of the plates was read at 650 nm.

[1] = PAX2 peptides, ratio to ZElan021 (HAX42 = 1.00), first 50 μg/ml column
[2] = PAX2 peptides, ratio to ZElan021 (HAX42 = 1.00), first 20 μg/ml column
[3] = PAX2 peptides, ratio to ZElan021 (HAX42 = 1.00), second 50 μg/ml column
[4] = PAX2 peptides, ratio to ZElan021 (HAX42 = 1.00), second 20 μg/ml column
[5] = HAX42 peptides, ratio to ZElan021 (arbitrary 1.00)
[6] = HAX42 peptides, ratio to ZElan021 (arbitrary 1.00), first 50 μg/ml column
[7] = HAX42 peptides, ratio to ZElan021 (arbitrary 1.00), second 50 μg/ml column

Row | Structure (SMILES) | Binding value at 50 μg/ml [1] | Binding value at 20 μg/ml [2] | Binding value at 50 μg/ml [3] | Binding value at 20 μg/ml [4] | Binding value at 20 μg/ml [5] | Binding value at 50 μg/ml [6] | Binding value at 50 μg/ml [7]
1 | CC(C)C[C@H](NC(=O)[C@H](CCCNC(=N)N)NC(=O)[C@H](CCCNC(=N)N)NC(=O)[C@H](CC(N)=O)NC(=O)[C@H](Cc1c[nH]cn1)NC(=O)[C@H](CO)NC(=O)[C@H](CO)NC(=O)[C@H](Cc1c[nH]cn1)NC(=O)[C@H](CCCCN)NC(=O)[C@H](C)NC(=O)[C@H](CC(N)=O)NC(=O)[C@@H](NC(=O)[C@@H](N)CCCCNS(=O)(=O)c1cccc2c(N(C)C)cccc12)[C@@H](C)O)C(=O)N[C@@H](CCCNC(=N)N)C(=O)N[C@H](C(=O)N[C@@H](CCCNC(=N)N)C(=O)N[C@@H](CO)C(=O)N[C@@H](CCCNC(=N)N)C(=O)N1CCC[C@H]1C(=O)N[C@@H](CC(N)=O)C(N)=O)[C@@H](C)O [ZElan032] (H-K(Dansyl)TNAKHSSHNRRLRTRSRPN-NH2) | 0.95 |  |  |  |  |  | 
2 | CC(C)C[C@H](NC(=O)[C@H](CCCNC(=N)N)NC(=O)[C@H](CCCNC(=N)N)NC(=O)[C@H](CC(N)=O)NC(=O)[C@H](Cc1c[nH]cn1)NC(=O)[C@H](CO)NC(=O)[C@H](CO)NC(=O)[C@H](Cc1c[nH]cn1)NC(=O)[C@H](CCCCN)NC(=O)[C@H](C)NC(=O)[C@H](CC(N)=O)NC(=O)[C@@H](NC(=O)[C@@H](N)CCCCNS(=O)(=O)c1cccc2c(N(C)C)cccc12)[C@@H](C)O)C(=O)N[C@@H](CCCNC(=N)N)C(=O)N[C@H](C(=O)N[C@@H](CCCNC(=N)N)C(N)=O)[C@@H](C)O [ZElan033] (H-K(Dansyl)TNAKHSSHNRRLRTR-NH2) | 0.80 | 0.35 | 0.66 |  |  |  | 
3 | CC(C)C[C@H](NC(=O)[C@H](CCCNC(=N)N)NC(=O)[C@H](CCCNC(=N)N)NC(=O)[C@H](CC(N)=O)NC(=O)[C@H](Cc1c[nH]cn1)NC(=O)[C@H](CO)NC(=O)[C@H](CO)NC(=O)[C@@H](N)CCCCNS(=O)(=O)c1cccc2c(N(C)C)cccc12)C(=O)N[C@@H](CCCNC(=N)N)C(=O)N[C@H](C(=O)N[C@@H](CCCNC(=N)N)C(N)=O)[C@@H](C)O [ZElan035] (H-K(Dansyl)SSHNRRLRTR-NH2) | 0.81 | 0.12 | 0.77 | 0.43 |  |  | 
4 | C[C@H](NC(=O)[C@H](CC(N)=O)NC(=O)[C@@H](NC(=O)[C@@H](N)CCCCNS(=O)(=O)c1cccc2c(N(C)C)cccc12)[C@@H](C)O)C(=O)N[C@@H](CCCCN)C(=O)N[C@@H](Cc1c[nH]cn1)C(=O)N[C@@H](CO)C(=O)N[C@@H](CO)C(=O)N[C@@H](Cc1c[nH]cn1)C(=O)N[C@@H](CC(N)=O)C(N)=O [ZElan055] (H-K(Dansyl)TNAKHSSHN-NH2) | 1.10 | 0.99 | 0.59 | 0.73 |  |  | 
5 | CC(C)C[C@H](NC(=O)[C@H](CCCNC(=N)N)NC(=O)[C@H](CCCNC(=N)N)NC(=O)[C@@H](N)CCCCNS(=O)(=O)c1cccc2c(N(C)C)cccc12)C(=O)N[C@@H](CCCNC(=N)N)C(=O)N[C@H](C(=O)N[C@@H](CCCNC(=N)N)C(=O)N[C@@H](CO)C(=O)N[C@@H](CCCNC(=N)N)C(=O)N1CCC[C@H]1C(=O)N[C@@H](CC(N)=O)C(N)=O)[C@@H](C)O [ZElan056] (H-K(Dansyl)RRLRTRSRPN-NH2) | 0.21 | 0.00 | 0.21 | 0.16 |  |  | 
6 | CC(C)C[C@H](NC(=O)[C@H](CCCNC(=N)N)NC(=O)[C@H](CCCNC(=N)N)NC(=O)[C@@H](N)CCCCNS(=O)(=O)c1cccc2c(N(C)C)cccc12)C(=O)N[C@@H](CCCNC(=N)N)C(=O)N[C@H](C(=O)N[C@@H](CCCNC(=N)N)C(=O)N[C@@H](CO)C(=O)N[C@@H](CCCNC(=N)N)C(N)=O)[C@@H](C)O [ZElan057] (H-K(Dansyl)RRLRTRSR-NH2) | 0.56 | 0.08 | 0.25 |  |  |  | 
7 | CC(C)C[C@H](NC(=O)[C@H](CCCNC(=N)N)NC(=O)[C@H](CCCNC(=N)N)NC(=O)[C@@H](N)CCCCNS(=O)(=O)c1cccc2c(N(C)C)cccc12)C(=O)N[C@@H](CCCNC(=N)N)C(=O)N[C@H](C(=O)N[C@@H](CCCNC(=N)N)C(N)=O)[C@@H](C)O [ZElan058, H2N-K(dns)RRLRTR-CONH2] (H-K(Dansyl)RRLRTR-NH2) | 0.47 | 0.05 | 0.16 |  |  |  | 
8 | CC(C)C[C@H](NC(=O)[C@H](C)NC(=O)[C@H](Cc1c[nH]cn1)NC(=O)[C@H](CC(=O)O)NC(=O)[C@H](CO)NC(=O)[C@@H](N)CCCCNS(=O)(=O)c1cccc2c(N(C)C)cccc12)C(=O)NCC(=O)N[C@H](C(=O)N[C@@H](CC(N)=O)C(=O)N[C@@H](CC(C)C)C(=O)N[C@@H](CCCNC(=N)N)C(=O)N[C@@H](CO)C(=O)N[C@@H](CC(=O)O)C(=O)N[C@@H](CC(N)=O)C(=O)N[C@@H](C)C(=O)N[C@@H](CCCCN)C(=O)N[C@@H](CCC(=O)O)C(=O)N1CCC[C@H]1C(=O)NCC(=O)N[C@@H](CC(=O)O)C(=O)N[C@@H](Cc1ccc(O)cc1)C(=O)N[C@@H](CC(N)=O)C(=O)N[C@@H](CS)C(=O)N[C@@H](CS)C(=O)NCC(=O)N[C@@H](CC(N)=O)C(=O)NCC(N)=O)[C@@H](C)O [ZElan060] (H-K(Dansyl)SDHALGTNLRSDNAKEPGDYNCCGNG-NH2) |  |  |  |  | 0.44 | 0.56 | 0.43
9 | CC[C@H](C)[C@H](NC(=O)[C@H](C)NC(=O)[C@H](CO)NC(=O)[C@@H]1CCCN1C(=O)[C@H](CCCNC(=N)N)NC(=O)[C@H](CCCNC(=N)N)NC(=O)[C@H](CCCNC(=N)N)NC(=O)[C@H](CC(N)=O)NC(=O)[C@H](Cc1ccccc1)NC(=O)[C@@H](NC(=O)[C@H](CCCCN)NC(=O)[C@H](CCCNC(=N)N)NC(=O)CNC(=O)[C@@H](NC(=O)[C@H](CO)NC(=O)[C@H](CC(N)=O)NC(=O)CNC(=O)[C@H](CC(N)=O)NC(=O)CNC(=O)[C@H](CS)NC(=O)[C@H](CS)NC(=O)[C@H](CC(N)=O)NC(=O)[C@H](Cc1ccc(O)cc1)NC(=O)[C@H](CC(=O)O)NC(=O)CNC(=O)[C@@H](N)CCCCNS(=O)(=O)c1cccc2c(N(C)C)cccc12)[C@@H](C)O)C(C)C)C(=O)N1CCC[C@H]1C(=O)N[C@H](C(N)=O)[C@@H](C)O [ZElan061] (H-K(Dansyl)GDYNCCGNGNSTGRKVFNRRRPSAIPT-NH2) |  |  |  |  | 0.20 | 0.60 | 0.38
10 | CC(C)C[C@H](NC(=O)[C@H](C)NC(=O)[C@H](Cc1c[nH]cn1)NC(=O)[C@H](CC(=O)O)NC(=O)[C@H](CO)NC(=O)[C@@H](N)CCCCNS(=O)(=O)c1cccc2c(N(C)C)cccc12)C(=O)NCC(=O)N[C@H](C(=O)N[C@@H](CC(N)=O)C(=O)N[C@@H](CC(C)C)C(=O)N[C@@H](CCCNC(=N)N)C(=O)N[C@@H](CO)C(=O)N[C@@H](CC(=O)O)C(=O)N[C@@H](CC(N)=O)C(=O)N[C@@H](C)C(=O)N[C@@H](CCCCN)C(=O)N[C@@H](CCC(=O)O)C(=O)N1CCC[C@H]1C(=O)NCC(N)=O)[C@@H](C)O [ZElan062] (H-K(Dansyl)SDHALGTNLRSDNAKEPG-NH2) |  |  |  |  | 0.11 | 0.42 | 0.34
11 | CC(C)[C@H](NC(=O)[C@H](CCCCN)NC(=O)[C@H](CCCNC(=N)N)NC(=O)[C@@H](N)CCCCNS(=O)(=O)c1cccc2c(N(C)C)cccc12)C(=O)N[C@@H](Cc1ccccc1)C(=O)N[C@@H](CC(N)=O)C(=O)N[C@@H](CCCNC(=N)N)C(=O)N[C@@H](CCCNC(=N)N)C(=O)N[C@@H](CCCNC(=N)N)C(=O)N1CCC[C@H]1C(=O)N[C@@H](CO)C(N)=O [ZElan065] (H-K(Dansyl)RKVFNRRRPS-NH2) |  |  |  |  | 0.00 | 0.54 | 0.30
12 | CN(C)c1cccc2c(S(=O)(=O)NCCCC[C@H](N)C(=O)N[C@@H](CC(N)=O)C(=O)N[C@@H](CCCNC(=N)N)C(=O)N[C@@H](CCCNC(=N)N)C(=O)N[C@@H](CCCNC(=N)N)C(=O)N3CCC[C@H]3C(=O)N[C@@H](CO)C(N)=O)cccc12 [ZElan067, H2N-K(dns)NRRRPS-CONH2] (H-K(Dansyl)NRRRPS-NH2) |  |  |  |  | 0.08 | 0.52 | 0.40
13 | CC(C)C[C@H](NC(=O)[C@H](C)NC(=O)[C@H](Cc1c[nH]cn1)NC(=O)[C@H](CC(=O)O)NC(=O)[C@H](CO)NC(=O)[C@@H](N)CCCCNS(=O)(=O)c1cccc2c(N(C)C)cccc12)C(=O)NCC(=O)N[C@H](C(=O)N[C@@H](CC(N)=O)C(=O)N[C@@H](CC(C)C)C(=O)N[C@@H](CCCNC(=N)N)C(=O)N[C@@H](CO)C(=O)N[C@@H](CC(=O)O)C(=O)N[C@@H](CC(N)=O)C(=O)N[C@@H](C)C(=O)N[C@@H](CCCCN)C(=O)N[C@@H](CCC(=O)O)C(=O)N1CCC[C@H]1C(=O)NCC(=O)N[C@@H](CC(=O)O)C(=O)N[C@@H](Cc1ccc(O)cc1)C(=O)N[C@@H](CC(N)=O)C(=O)N[C@@H](CS)C(=O)N[C@@H](CS)C(=O)NCC(=O)N[C@@H](CC(N)=O)C(=O)NCC(=O)N[C@@H](CC(N)=O)C(=O)N[C@@H](CO)C(=O)N[C@H](C(N)=O)[C@@H](C)O)[C@@H](C)O [ZElan070] (H-K(Dansyl)SDHALGTNLRSDNAKEPGDYNCCGNGNST-NH2) |  |  |  |  | 0.59 | 0.97 | 0.39

Source: patent US7135457B1, “Random peptides that bind to gastro-intestinal tract (GIT) transport receptors and related methods” (Cytogen Corporation, priority 1997, dated 2006)
